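Test compounds were applied to cells in 96-well plates for 48 hours at 5 doses. GI50: concentration for 50% inhibition of growth. Definition used: TGI = concentration required for complete inhibition of growth.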
Key:
Test in all cases: inhibition of tumour cell growth, NCI panel, 48 h
UACC-62 melanoma = test system: UACC-62 melanoma
NCI-H522 lung = test system: NCI-H522 lung
SNB-75 CNS = test system: SNB-75 CNS
HCT-15 colon = test system: HCT-15 colon
CAKI-1 renal = test system: CAKI-1 renal
UACC-257 melanoma = test system: UACC-257 melanoma
SF-268 CNS = test system: SF-268 CNS
BT-549 breast = test system: BT-549 breast
MDA-MB-231 breast = test system: MDA-MB-231 breast
MALME-3M melanoma = test system: MALME-3M melanoma

Row | Structure (SMILES) | TGI (UACC-62 melanoma) [µM] | TGI (NCI-H522 lung) [µM] | TGI (SNB-75 CNS) [µM] | TGI (HCT-15 colon) [µM] | TGI (CAKI-1 renal) [µM] | TGI (UACC-257 melanoma) [µM] | TGI (SF-268 CNS) [µM] | TGI (BT-549 breast) [µM] | TGI (MDA-MB-231 breast) [µM] | TGI (MALME-3M melanoma) [µM] | GI50 (UACC-62 melanoma) [µM] | GI50 (NCI-H522 lung) [µM] | GI50 (SNB-75 CNS) [µM] | GI50 (HCT-15 colon) [µM] | GI50 (MALME-3M melanoma) [µM] | GI50 (MDA-MB-231 breast) [µM] | GI50 (CAKI-1 renal) [µM] | GI50 (SF-268 CNS) [µM] | GI50 (UACC-257 melanoma) [µM]
1 | Cc1cc(NCCCCCCCCNc2cc(C)nc3cc(N)ccc23)c2ccc(N)cc2n1 | 38.4 | 30.8 | 69.1 | > 100 | > 100 | 35.5 | > 100 |  |  |  |  |  |  |  |  |  |  |  | 
2 | COC(=O)CC(NC(=O)OCc1ccccc1)C(C(C)=O)C(=O)OCc1ccccc1 (stereo unspecified) | > 31.6 | > 31.6 | 30.8 | > 31.6 | > 31.6 | > 31.6 | > 31.6 |  |  |  |  |  |  |  |  |  |  |  | 
3 | O=C1CSCc2sccc21 | > 100 | > 100 | > 100 | > 100 | > 100 | > 100 | > 100 | > 100 | > 100 |  |  |  |  |  |  |  |  |  | 
4 | Cc1cn(C2CC(O)C(COC(=O)c3ccccc3)O2)c(=O)[nH]c1=O (stereo unspecified) | > 100 | > 100 |  | > 100 | > 100 | > 100 |  |  |  | > 100 |  |  |  |  |  |  |  |  | 
5 | O=C1C2Nc3ccccc3SC2C(=O)N1c1ccc(Br)cc1 (stereo unspecified) | > 100 | 89.8 | 60.7 | > 100 |  | > 100 | > 100 |  |  | > 100 |  |  |  |  |  |  |  |  | 
6 | CC(=O)OCC1OC(n2cc(F)c(=O)[nH]c2=O)C(NC(=O)N(CCCl)N=O)C(OC(C)=O)C1OC(C)=O (stereo unspecified) | > 100 | > 100 | 78.3 |  | > 100 | > 100 | > 100 |  |  | > 100 |  |  |  |  |  |  |  |  | 
7 | O=C(/C=C/c1cc(Cl)cc(Cl)c1O)c1cccc(O)c1 | > 100 | > 100 | 94.4 | > 100 | > 100 | > 100 | > 100 |  |  | 87.3 |  |  |  |  |  |  |  |  | 
8 | O=C(Oc1cccc2cccnc12)c1cc2c(cc1Cl)SC(N(c1ccc(F)cc1)S(=O)(=O)c1ccc(Br)s1)=NS2(=O)=O | > 100 | 48.3 | 93.5 | > 100 | 97.6 |  | > 100 |  | > 100 | 49.6 | 32.6 | 19.6 | 26.5 | 25.9 | 18.8 | 23.6 | 31.6 | 35.7 | 
9 | COC(=O)CCC(NC(=S)N/N=C(\C)c1cnc2ccccc2n1)C(=O)OC (stereo unspecified) | 38.5 | 38.2 | > 100 | > 100 |  | > 100 | > 100 |  |  | > 100 |  |  |  |  |  |  |  |  | 
10 | COC(=O)C(C(=O)C(=O)Nc1c(C)cccc1C)c1cnc2ccccc2n1 (stereo unspecified) | > 100 | > 100 | > 100 | > 100 | > 100 | > 100 | > 100 |  |  | > 100 |  |  |  |  |  |  |  |  | 
11 | O=C(N/C(=C\c1ccc(Cl)cc1)c1nc2ccccc2[nH]1)c1ccccc1 | 32.3 | 30.7 | 47.2 | > 100 | 54.5 | 46.2 | 38.5 |  |  | > 100 |  |  |  |  |  |  |  |  | 
12 | Cc1nc(-n2nc(-c3ccccc3)cc2-c2ccccc2)sc1C(=O)/C=C/c1ccc(/C=C/C(=O)c2sc(-n3nc(-c4ccccc4)cc3-c3ccccc3)nc2C)cc1 |  | 34.4 |  | > 100 | 51.6 | 45.6 | 51.6 |  |  | 40.2 |  |  |  |  |  |  |  |  | 
13 | COc1ccc(NC(=O)C(=O)c2c(O)c3ccc(O)cc3oc2=O)c([N+](=O)[O-])c1 | > 100 | > 100 | > 100 | > 100 | > 100 | > 100 | > 100 |  |  | > 100 |  |  |  |  |  |  |  |  | 
14 | CCC(C)CCOC(=O)c1ccc(N=Cc2ccc(C=Nc3ccc(C(=O)OCCC(C)CC)cc3)cc2)cc1 (stereo unspecified) | > 100 | > 100 | > 100 | > 100 | > 100 | > 100 | > 100 |  |  | > 100 |  |  |  |  |  |  |  |  | 
15 | Cc1c(Cl)cccc1NC(=O)C(=O)C(C(=O)c1ccccc1-c1ccccc1)C1OC(=O)c2ccccc21 (stereo unspecified) | 37.3 | 26.4 | 42.1 |  |  | 46.8 | 61.7 |  |  | 28.8 |  |  |  |  |  |  |  |  | 
16 | O=C1NC(Cc2ccc(O)cc2)C(=O)N2CCCC12 (stereo unspecified) | > 100 | > 100 | > 100 | > 100 | > 100 | > 100 | > 100 |  |  | > 100 |  |  |  |  |  |  |  |  | 
17 | CCOC(=O)C1Cc2c(cc3c4c(cccc24)N(C(C)=O)C3)N(C)C1 (stereo unspecified) | > 100 | 1.3 | > 100 | > 100 | > 100 | > 100 | > 100 |  | 5.71 | > 100 |  |  |  |  |  |  |  |  | 
18 | COC(=O)C1CCc2c1c(=O)n1c([nH]c3ccccc31)c2C#N (stereo unspecified) | > 100 | > 100 | > 100 | > 100 | > 100 | > 100 | > 100 |  |  | > 100 |  |  |  |  |  |  |  |  | 
19 | CN1c2ccccc2N(C(=O)c2ccc([N+](=O)[O-])cc2)C(CC(=O)O)c2cccn21 (stereo unspecified) | > 100 | > 100 | > 100 | > 100 | > 100 | > 100 | > 100 |  |  | > 100 |  |  |  |  |  |  |  |  | 
20 | N.N.N.N.N.[Co+3].[I-].[N-]=[N+]=[N-] | > 100 | > 100 | > 100 | > 100 |  | > 100 | > 100 |  |  | > 100 | 89.7 | > 100 | 76.9 | > 100 | > 100 |  |  | > 100 | > 100
21 | COc1ccc(/C=C(/C#N)C(N)=O)c(OC)c1 | > 100 | > 100 | > 100 | > 100 | > 100 | > 100 | > 100 | > 100 | > 100 |  |  |  |  |  |  |  |  |  | 
22 | O=C(Nc1ccc2[nH]nc(-c3ccncc3)c2c1)[C@@H]1CCN(CC(=O)N2CCN(c3ccc(-c4ncccn4)cc3)CC2)C1 |  | > 100 | > 90.8 | > 100 |  |  | > 100 | > 100 | > 100 |  |  | 7.27 | 18.2 | 7.79 |  | 0.0528 |  | > 69.7 | 
23 | Cc1ccc(S(=O)(=O)OCCn2cnc3nc(NC(=O)c4ccccc4)[nH]c(=O)c32)cc1 | > 100 | > 100 | > 100 | > 100 | > 100 | > 100 | > 100 |  |  | > 100 |  |  |  |  |  |  |  |  | 
24 | CCCCCN(CCCCC)C(=O)[C@@H](CCC(=O)O)NC(=O)c1cc2ccccc2[nH]1 | 47.5 | 39.7 | 61.8 | > 100 | 67.6 | > 100 | 82.9 |  |  | > 100 |  |  |  |  |  |  |  |  | 
